Data: US12065654B2, “Plants having increased tolerance to herbicides” (BASF SE, priority 2014, dated 2024)

Experiments:
[1] = tested on: Arabidopsis overexpression line Arabidopsis M335H, P336A, E363Q; assay: Germination assay in 48-well plates; format: in vivo, Arabidopsis thaliana; settings: IC50 transgenic / wildtype, mean of 5 T2 events
Protocol: (§1) Depending on the species, the plants are kept at 10-25° C. or 20-35° C. The test period extends over 3 weeks. During this time, the plants are tended and their response to the individual treatments is evaluated. Herbicide injury evaluations are taken at 2 and 3 weeks after treatment. Plant injury is rated on a scale of 0 to 9, 0 being no injury and 9 being complete death. Tolerance to HPPD-inhibiting, preferably pyrazolone, isoxazole, or triketone derivative herbicides can also be assessed in Arabidopsis. In this case transgenic Arabidopsis thaliana plants are assayed for improved tolerance to HPPD-inhibiting, preferably pyrazolone, isoxazole, or triketone derivative herbicides in 48-well plates. Seeds are surface sterilized by stirring for 5 min in ethanol+water (70+30 by volume), rinsing one time with ethanol+water (70+30 by volume) and two times with a sterile, deionized water. The seeds are resuspended in 0.1% agar dissolved in water (w/v). Four to five seeds per well are plated on solid nutrient medium consisting of half-strength Murashige Skoog nutrient solution, pH 5.8 (Murashige and Skoog (1962) Physiologia Plantarum 15: 473-497). Compounds are dissolved in dimethylsulfoxid (DMSO) and added to the medium prior solidification (final DMSO concentration 0.1%). Multi well plates are incubated in a growth chamber at 22° C., 75% relative humidity and 110 μmol Phot*m−2*s−1 with 14:10 h light:dark photoperiod. Seven to ten days after seeding growth inhibition is evaluated by comparison to wild type plants. Tolerance factor is calculated by dividing the plant growth IC50 value of transgenic plants containing a HPPD and/or HST sequence by that of wildtype plants.

[2] = tested on: Arabidopsis overexpression line Arabidopsis F381I; assay: Germination assay in 48-well plates; format: in vivo, Arabidopsis thaliana; settings: IC50 transgenic / wildtype, mean of 5 T2 events
Protocol: as §1

[3] = tested on: Arabidopsis overexpression line Picrophilus HPPD; assay: Germination assay in 48-well plates; format: in vivo, Arabidopsis thaliana; settings: IC50 transgenic / wildtype, mean of 5 T2 events
Protocol: as §1

[4] = tested on: Arabidopsis overexpression line Hordeum L320Q; assay: Germination assay in 48-well plates; format: in vivo, Arabidopsis thaliana; settings: IC50 transgenic / wildtype, mean of 5 T2 events
Protocol: as §1

[5] = tested on: Arabidopsis overexpression line Rhodococcus HPPD2; assay: Germination assay in 48-well plates; format: in vivo, Arabidopsis thaliana; settings: IC50 transgenic / wildtype, mean of 5 T2 events
Protocol: as §1

[6] = tested on: Arabidopsis overexpression line Arabidopsis M335H; assay: Germination assay in 48-well plates; format: in vivo, Arabidopsis thaliana; settings: IC50 transgenic / wildtype, mean of 5 T2 events
Protocol: as §1

[7] = tested on: Arabidopsis overexpression line Hordeum L320H, P321A; assay: Germination assay in 48-well plates; format: in vivo, Arabidopsis thaliana; settings: IC50 transgenic / wildtype, mean of 5 T2 events
Protocol: as §1

[8] = tested on: transgenic soybean plants AtHPPD P336A E363Q I393L L385V, event SDS-10085; assay: Greenhouse testing of soybean plants; format: in vivo, Glycine max; settings: soybean AtHPPD P336A E363Q I393L L385V SDS-10085, 14 days, average of 8 T1 individuals
Protocol: (§2) Transgenic plants expressing heterologous HPPD or HST enzymes are tested for tolerance against HPPD-inhibiting, preferably pyrazolone, isoxazole, or triketone derivative herbicides in greenhouse experiments.
(§3) For post emergence treatment, the test plants are first grown to a height of 3 to 15 cm, depending on the plant habit, and only then treated with the herbicides. For this purpose, the test plants are either sown directly and grown in the same containers, or they are first grown separately and transplanted into the test containers a few days prior to treatment.
(§4) For testing of T0 plants, cuttings can be used. In the case of soybean plants, an optimal shoot for cutting is about 7.5 to 10 cm tall, with at least two nodes present. Each cutting is taken from the original transformant (mother plant) and dipped into rooting hormone powder (indole-3-butyric acid, IBA). The cutting is then placed in oasis wedges inside a bio-dome. Wild type cuttings are also taken simultaneously to serve as controls. The cuttings are kept in the bio-dome for 5-7 days and then transplanted to pots and then acclimated in the growth chamber for two more days. Subsequently, the cuttings are transferred to the greenhouse, acclimated for approximately 4 days, and then subjected to spray tests as indicated.
as §1
(§5) Transgenic soy plants were sprayed with a range of doses from 6.25-100 g/ha with an HPPD-inhibiting herbicide and injury evaluations were taken two weeks after treatment. […] Compared to the untransformed wild-type, plants comprising polynucleotides encoding for Arabidopsis HPPD wild-type or mutated versions thereof were less susceptible to Inhibitor 1.

[9] = tested on: transgenic soybean plants AtHPPD, event SDS-10248; assay: Greenhouse testing of soybean plants; format: in vivo, Glycine max; settings: for Injury evaluation (bleaching phenotype, scale of 1-100): soybean AtHPPD SDS-10248, 14 days, average of 8 T1 individuals
Protocol: as §2, §3, §4, §1, §5

[10] = tested on: soybean plants expressing mutated Arabidopsis HPPD; assay: Herbicide field trial; format: in vivo, Glycine max; settings: 7 DAT with 50 g/ha, post-emergence V2-V3, 1% v/v MSO; preliminary assessment, FIG. 7
Protocol: (§6) Transgenic plants expressing heterologous HPPD or HST enzymes are tested for tolerance against HPPD-inhibiting herbicides in field experiments.
(§7) A study can be conducted at a field trial location to evaluate the effect of HPPD herbicides on the phenotypic and phenologic characteristics of a soybean variety containing different transgenes.
(§8) The trial is designed as a randomized complete block with a split-plot treatment design. The trial contains mainplots defined by ‘herbicide treatment’ (combination of herbicide and application rate). The herbicide treatments are applied post-emergence at the V2-V3 plant growth stage. […]
(§9) Each plot consists of a single row 1.2 m long and adjacent plots are spaced 0.76 m apart. […] The zygosity of each plant of transgenic event is determined prior to the application of the herbicide treatment.
(§10) The effect of the HPPD herbicide treatments on phenotypic and phenologic characteristics of plants representing each transgenic event and control variety, including tolerance to each herbicide treatment, is assessed during different vegetative and reproductive stages of plant growth.
(§11) An analysis of variance is conducted on data collected from each subplot and a Student's T test or Tukey's test is calculated where appropriate to compare means. […]

[11] = tested on: untransformed control soybean plants (Jake); assay: Herbicide field trial; format: in vivo, Glycine max; settings: 7 DAT with 50 g/ha, post-emergence V2-V3, 1% v/v MSO; preliminary assessment, FIG. 7
Protocol: as §6, §7, §8, §9, §10, §11

Cc1c(C(=O)c2cnn(C)c2O)ccc(S(C)(=O)=O)c1C1=NOCC1 [Inhibitor 1, [3-(4,5-dihydroisoxazol-3-yl)-2-methyl-4-methylsulfonyl-phenyl]-(5-hydroxy-1-methyl-pyrazol-4-yl)methanone]
Tolerance factor [1]: 25
Tolerance factor [2]: 90
Tolerance factor [3]: 10
Tolerance factor [4]: 100
Tolerance factor [5]: 32
Tolerance factor [6]: 10
Tolerance factor [7]: 300
Injury evaluation (bleaching phenotype, scale of 1-100) ([8]; 6.25 g/ha): 16%
Injury evaluation (bleaching phenotype, scale of 1-100) ([8]; 25 g/ha): 35%
Injury evaluation (bleaching phenotype, scale of 1-100) ([8]; 100 g/ha): 78%
fold tolerance compared to untransformed wild-type ([9]; soy plants with SEQ ID NO:53, 100 g/ha): 2 fold
Injury evaluation (bleaching phenotype, scale of 1-100) ([9]; 6.25 g/ha): 2%
Injury evaluation (bleaching phenotype, scale of 1-100) ([9]; 25 g/ha): 3%
Injury evaluation (bleaching phenotype, scale of 1-100) ([9]; 100 g/ha): 44%
field injury (in words) [10]: low-moderate injury
field injury (in words) [11]: severe herbicide damage
